Results from US6943191B1, “Disubstituted lavendustin A analogs and pharmaceutical composition comprising the analogs” (The United States of America as represented by the …, priority 1998, dated 2005).
Like-named read-outs stand apart in the source and are kept apart here.

Assays:
[1] = test system: minimum of 12 human cancer cell lines; assay: Hollow fiber assay in mice, point score; format: in vivo; conditions: for Hollow Fiber Assay IP score: first number of cell; for Hollow Fiber Assay SC score: second number of cell; for IP+SC score / SC score: hollow fiber assay
Method: Compounds satisfying Formulas 1 and 2 also have been tested for in vivo activity in the hollow fiber assay. See Example 12 below for the procedure used for the in vivo tests. Each compound tested was tested against a minimum of 12 human cancer cell lines. Data is reported as % T/C (i.e., the […]) for each of the 2 compound doses against each of the cell lines with separate values calculated for the intraperitoneal and subcutaneous samples, with a target value for % T/C being about 50 or less.
Compounds were selected for further in vivo testing in standard subcutaneous xenograft models on the basis of several hollow fiber assay criteria. These criteria include: (1) a % T/C of 50 or less in 10 of the 48 possible test combinations (12 cell lines×2 sites×2 compound doses); (2) activity at a distance (intrapentoneal drug/subcutaneous culture) in a minimum of 4 of the 24 possible combinations; and/or (3) a net cell kill of 1 or more cell lines in either implant site. To simplify evaluation, a point system has been adopted which allows rapid assessment of a compound's activity. A value of 2 is assigned for each compound dose which results in a 50% or greater reduction in viable cell mass. The intraperitoneal and subcutaneous samples were scored separately so that criteria (1) and (2) could be evaluated. Compounds with a combined IP+SC score≧20, an SC score≧8, or a net cell kill of one or more cell lines were referred for xenograft testing. These criteria have been statistically validated by comparing the activity outcomes of greater than 80 randomly selected compounds in the hollow fiber assay and in the xenograft testing.
This example describes the method used for in vivo testing of mice. Human cancer cells were cultivated in polyvinylidene fluoride (PVDF) hollow fibers. A sample of each cancer cell line was implanted intraperitoneally and subcutaneously in mice. Each mouse received a total of 6 fibers, 3 intraperitoneally and 3 subcutaneously, representing 3 distinct cancer cell lines. Three mice were treated with compounds made according to the present invention at each of two test doses intraperitoneally using a QD×4 treatment schedule. Vehicle controls consisted of 6 mice receiving the compound diluent only The fiber cultures were collected on the day following the last treatment. Anticancer effects were assessed by determining viable cell mass for each of the coil line using a formazan dye (MTT) conversion assay. From this, the % TIC was calculated using the average optical density of the compound-treated samples divided by the average optical density of the vehicle controls. In addition, the net increase in cell mass was determined for each sample as samples of fiber cultures were assessed for viable cell mass on the day of implantation into mice. This allowed cytostatic and cytocidal capacities of these compounds to be assessed.

p210^bcr-abl = biological target: T1, p210^bcr-abl (Homo sapiens, UniProt P00519); assay: Inhibition of in vitro auto-phosphorylation of p210^bcr-abl, immune-complex kinase assay; format: biochemical; conditions: immune complex kinase assay, 3 experiments, read-out: Enzyme Assays IC50 (μM) p210bcl-abl in vitro phosphorylation
T1 construct: immune complexes containing ^32P-labeled p210^bcr-abl were collected on protein Sepharose beads; BCR (N-terminal part of the breakpoint cluster region protein, natural fusion partner); endogenous in cells; host or cells: K562 cells (lysate, immunoprecipitated on Protein A-Sepharose); the other entry of the earlier key: BCR (P11274, Breakpoint cluster region protein)
Method: Inhibition of in vitro auto-phosphorylation of p210^bcr-abl in immune-complex kinase assays were conducted as follows. K562 cell line cells were washed twice in […]. The washed cells were lysed in PLC lysis buffer 150 mM HEPES (pH 7.5), 150 mM NaCl, 10% (v/v) glycerol, 1% (v/v) Triton X-100, 1.5 mM MgCl2, 1 mM EGTA. 10 μg/ml leupeptin, 10 μg/ml aprotinin, 1 mM sodium orthovanadate. 10 mM sodium pyrophosphate, 100 mM sodium fluoride and 1 mM phenylmethyl sulfonyl fluoride| Cell lysates were centrifuged at 100,000 g for 15 minutes and the supernatant collected. Protein concentrations of the clarified supernatants were determined by the Bradford Protein Assay, and the same quantity of protein was immunoprecipitated from control (vehicle-treated) and drug-treated cells. Cell lysates were incubated and gently rocked at 4° C. for 4 hours overnight with antibodies. Immune complexes were collected by incubation with Protein A-Sepharose beads (Pharmacia, Piscataway N.J.) and immune complexes (beads) were washed three times with HNTG buffer [20 mM HEPES (pH 7.5), 10% glycerol, 0.1% Triton X-100, 150 mM NaCl and 1 mM sodium orthovanadate] to remove unbound material. Bound proteins were boiled for 5 minutes in 2×SDS sample buffer (63 mM Tris-HCl, ph 6.8; 10% glycerol; 2% SDS; 0.0025% bromophenol blue: and […] 2 mercaptoethanol) prior to SDS-PAGE. Proteins were resolved on 4-20% gradient mini gels from Novex Experimental Technology (San Diego, Calif.).
After SDS-PAGE, proteins were electrophoretically transferred onto Immobilon polyvinylidene difluoride (PVDF) membranes (Millipore, Bedford, Mass.) at 250 mA for 4 hours at 4° C. using 2× Tris glycine transfer buffer (50 mM Tris, glycine), 20% methanol and 0.1% SDS. Residual binding sites on the membrane were blocked by incubation in TTS (20 mM Tris pH 7.4, 0.9% NaCl and 0.05% Tween 20) containing 3% BSA overnight at 4° C. or for 4 hours at room temperature. Blots were incubated for 1-1.5 hours with TTS containing 0.3% BSA with 1 μg/ml of mouse anti-P-Tyr, 2 μg/ml of mouse anti-Grb2 or 1 μg/ml of rabbit anti-She antibody. Blots were washed three times for 6 minutes each with TTS containing 0.3% BSA and probed with a 1:1000 dilution of rabbit anti-mouse antibody or directly with [^125I]Protein A (Amersham, Arlington Heights, Ill.) in blocking solutions. Proteins were visualized by autoradiography (exposed for 1-2 days at −70° C.).
The p210^bcr-abl, protein immunoprecipitates were washed twice with HTNG buffer Immunoprecipitates were washed once with 50 mM Tris (pH 7.0) and distributed to each reaction in 20 μl of 20 mM PIPES [piperazine-N,N′-bis(ethanesulfonic acid)] (pH 7.0)−20 mM MnCl2. Then, 10 μl of compounds made according to the present invention at desired concentrations from working stock solution prepared in 20 mM PIPEs (pH 7.0)−20 mM MnCl2 were added to each reaction tube. Reactions were initiated with the addition of 10 μl of [γ-^33P]ATP (10 μCi per sample, 3000 Ci/mmol; Amersham), incubated for 20 minutes at 30° C., stopped by addition of 10 μl of 5×SDS sample buffer, heated at 100° C. for 5 minutes, and analyzed on 4-20% SDS-PAGE and by autoradiography.
To assess the effect of drugs added in vitro on the state of p210^bcr-abl in the immune complexes, K562 cells were labeled with ^32P, lysed in PLC buffer and immune complexes containing ^32P-labeled p210^bcr-abl were collected on protein Sepharose beads and beads were washed four times with HNTG buffer. Immune complexes were divided into several tubes in 30 μl of PLC buffer in the presence of compounds made as described herein.

[2] = Table 8, intraperitoneal fibers

T1 sequence (P00519 with tags, fused parts or gaps): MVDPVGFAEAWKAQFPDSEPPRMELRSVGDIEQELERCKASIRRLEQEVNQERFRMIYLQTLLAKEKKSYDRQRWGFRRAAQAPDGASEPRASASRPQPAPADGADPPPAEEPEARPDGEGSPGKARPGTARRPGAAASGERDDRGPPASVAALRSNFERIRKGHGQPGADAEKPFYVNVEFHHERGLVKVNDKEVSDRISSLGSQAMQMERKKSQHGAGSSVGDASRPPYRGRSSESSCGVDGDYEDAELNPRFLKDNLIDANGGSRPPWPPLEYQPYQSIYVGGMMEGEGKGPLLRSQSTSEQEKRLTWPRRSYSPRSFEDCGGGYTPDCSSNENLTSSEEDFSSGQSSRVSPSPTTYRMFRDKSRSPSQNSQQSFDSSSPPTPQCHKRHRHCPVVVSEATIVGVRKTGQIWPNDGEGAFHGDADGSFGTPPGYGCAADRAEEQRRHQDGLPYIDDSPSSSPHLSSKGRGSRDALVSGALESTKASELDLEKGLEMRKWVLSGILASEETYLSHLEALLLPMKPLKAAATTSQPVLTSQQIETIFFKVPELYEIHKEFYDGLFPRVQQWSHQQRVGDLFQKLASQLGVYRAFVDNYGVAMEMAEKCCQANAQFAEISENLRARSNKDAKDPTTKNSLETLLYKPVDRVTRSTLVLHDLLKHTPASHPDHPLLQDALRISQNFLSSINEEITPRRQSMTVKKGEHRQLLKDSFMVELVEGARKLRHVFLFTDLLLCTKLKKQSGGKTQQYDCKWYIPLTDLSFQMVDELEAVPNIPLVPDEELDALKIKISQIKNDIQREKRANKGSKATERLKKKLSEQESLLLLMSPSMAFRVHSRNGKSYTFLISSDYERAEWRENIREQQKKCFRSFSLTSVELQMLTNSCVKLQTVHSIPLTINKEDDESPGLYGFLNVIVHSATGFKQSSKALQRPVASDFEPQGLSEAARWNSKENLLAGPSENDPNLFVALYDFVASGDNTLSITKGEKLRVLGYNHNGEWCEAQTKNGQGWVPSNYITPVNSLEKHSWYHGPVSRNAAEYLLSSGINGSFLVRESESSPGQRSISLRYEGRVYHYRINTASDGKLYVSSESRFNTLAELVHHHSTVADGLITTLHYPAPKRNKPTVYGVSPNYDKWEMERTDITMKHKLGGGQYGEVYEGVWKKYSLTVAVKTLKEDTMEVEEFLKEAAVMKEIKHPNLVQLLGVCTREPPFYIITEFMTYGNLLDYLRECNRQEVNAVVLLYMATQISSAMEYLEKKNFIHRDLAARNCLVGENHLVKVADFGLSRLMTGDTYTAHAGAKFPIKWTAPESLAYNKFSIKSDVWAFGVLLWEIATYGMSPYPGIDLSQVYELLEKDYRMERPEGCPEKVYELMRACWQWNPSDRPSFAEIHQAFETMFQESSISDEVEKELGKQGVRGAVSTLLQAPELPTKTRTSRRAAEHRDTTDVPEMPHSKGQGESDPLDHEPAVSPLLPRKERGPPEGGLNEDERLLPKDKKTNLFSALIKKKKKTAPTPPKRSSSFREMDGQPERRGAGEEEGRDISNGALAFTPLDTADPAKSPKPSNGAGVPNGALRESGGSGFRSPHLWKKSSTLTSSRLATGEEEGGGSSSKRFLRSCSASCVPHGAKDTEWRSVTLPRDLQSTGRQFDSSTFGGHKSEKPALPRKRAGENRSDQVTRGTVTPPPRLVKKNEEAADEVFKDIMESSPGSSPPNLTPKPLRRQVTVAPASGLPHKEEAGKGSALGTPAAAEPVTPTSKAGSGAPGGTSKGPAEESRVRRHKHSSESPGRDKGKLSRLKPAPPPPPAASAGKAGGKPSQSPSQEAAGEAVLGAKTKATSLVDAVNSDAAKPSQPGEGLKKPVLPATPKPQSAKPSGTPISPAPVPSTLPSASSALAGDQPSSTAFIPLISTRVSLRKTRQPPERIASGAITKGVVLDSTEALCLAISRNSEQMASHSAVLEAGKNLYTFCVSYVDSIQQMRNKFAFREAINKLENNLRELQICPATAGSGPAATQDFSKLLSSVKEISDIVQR

| SMILES | IC50 (p210^bcr-abl; Table 10, mean ± S.E.) [µM] | IC50 (p210^bcr-abl; Table 8, mean+S.E.) [µM] | Hollow Fiber Assay IP score ([1]; Table 10) | Hollow Fiber Assay SC score ([1]; Table 10) | Hollow Fiber Assay Total Ip and SC Score ([1]; Table 10) | Hollow Fiber Assay IP score [1, 2] | Hollow Fiber Assay SC score ([1]; Table 8, subcutaneous fibers) | Hollow Fiber Assay Total Ip and SC Score ([1]; Table 8) | further results |
| --- | --- | --- | --- | --- | --- | --- | --- | --- | --- |
| O=C(OCc1ccccc1)c1ccc(NCc2cc(O)ccc2O)cc1 [COOCH2Ph / H / H] | – | 36.6 | – | – | – | 6 | 2 | 8 | – |
| CC(C)OC(=O)c1ccc(NCc2cc(O)ccc2O)cc1Cl [COOCH(CH3)2 / Cl / H, 5′-chloro-4′-isopropylbenzoate-1′-N-2,5-dihydroxybenzylamine] | – | 1.22 | – | – | – | 2 | 0 | 2 | – |
| CC(C)C(OC(=O)c1ccc(NCC2=CC(=O)C=CC2=O)cc1)C(C)C [COOCH[CH(CH3)2]2 / H / 2,5-quinoyl] | – | – | – | – | – | – | – | – | Hollow Fiber Assay IP score ([1]; Table 9, intraperitoneal fibers): 2; Hollow Fiber Assay SC score ([1]; Table 9, subcutaneous fibers): 4; Hollow Fiber Assay Total Ip and SC Score ([1]; Table 9): 6; IC50 (p210^bcr-abl; Table 9, mean ± S.E.): 34 ± 9.02 µM |
| CC(C)C(OC(=O)c1ccc(NCc2cc(O)ccc2O)cc1)C(C)C [COOCH[CH(CH3)2]2 / H / H] | – | 11.1 | – | – | – | 4 | 2 | 6 | – |
| O=C(OC12CC3CC(CC(C3)C1)C2)c1ccc(NCc2cc(O)ccc2O)cc1 [Compound 6, 4′-adamantylbenzoate-1′-N-2,5-dihydroxybenzylamine] | – | 13.6 | – | – | – | 8 | 8 | 16 | IP+SC score [1]: 16; SC score [1]: 8 |
| O=C(OCC12CC3CC(CC(C3)C1)C2)c1ccc(NCc2cc(O)ccc2O)cc1 [Compound 7, 4′-4′-adamantylmethylbenzoate-1′-N-2,5-dihydroxybenzylamine] | – | 12.6 | – | – | – | 12 | 8 | 20 | IP+SC score [1]: 20; SC score [1]: 8 |

Second part, led by results:

| IC50 (p210^bcr-abl; Table 10, mean ± S.E.) [µM] | IC50 (p210^bcr-abl; Table 8, mean+S.E.) [µM] | SMILES | Hollow Fiber Assay IP score ([1]; Table 10) | Hollow Fiber Assay SC score ([1]; Table 10) | Hollow Fiber Assay Total Ip and SC Score ([1]; Table 10) | Hollow Fiber Assay IP score [1, 2] | Hollow Fiber Assay SC score ([1]; Table 8, subcutaneous fibers) | Hollow Fiber Assay Total Ip and SC Score ([1]; Table 8) | further results |
| --- | --- | --- | --- | --- | --- | --- | --- | --- | --- |
| 4.42 ± 0.24 | – | COC(=O)c1ccc(CCc2cc(O)c(Br)cc2O)cc1 | 0 + 0 = 0 | 0 + 0 = 0 | 0 + 0 = 0 | – | – | – | – |
| 3.52 ± 0.16 | – | COC(=O)c1ccc(CCC2=CC(=O)C(Br)=CC2=O)cc1 | 0 + 0 = 0 | 0 + 0 = 0 | 0 + 0 = 0 | – | – | – | – |
| 4.19 ± 0.07 | – | CC(C)OC(=O)c1ccc(CCC2=CC(=O)C(Br)=CC2=O)cc1 | 0 + 0 = 0 | 0 + 0 = 0 | 0 + 0 = 0 | – | – | – | – |
| – | 7.72 | CC(C)(C)OC(=O)c1ccc(NCc2cc(O)ccc2O)cc1 [COOC(CH3)3 / H / H, 4′-t-butylbenzoate-1′-N-2,5-dihydroxybenzylamine] | – | – | – | 2 | 2 | 4 | – |
| 19.9 ± 9.94 | – | COC(=O)c1ccc(C=Cc2cc(O)ccc2O)cc1 [COOCH3 / 2,5-dihydoxyphenyl / CH═CH / H] | 2 | 4 | 6 | – | – | – | – |
| 5.47 ± 0.22 | – | COC(=O)c1ccc(/C=C/C2=CC(=O)C=CC2=O)cc1 [COOCH3 / 2,5-quinoyl / CH═CH / H] | 2 | 0 | 2 | – | – | – | – |
| 5.26 ± 2.09 | – | CC(C)OC(=O)c1ccc(CCC2=CC(=O)C=CC2=O)cc1 [COOCH(CH3)2 / 2,5-quinoyl / CH2—CH2 / H] | 0 + 0 = 0 | 0 + 0 = 0 | 0 + 0 = 0 | – | – | – | – |
| – | 4.45 | CC(C)OC(=O)c1ccc(NCc2cc(O)ccc2O)cc1 [COOCH(CH3)2 / H / H] | – | – | – | 4 | 6 | 10 | – |
